Tests used:
Type in all cases: biochemical
KDM5D = KDM5D (Homo sapiens, UniProt Q9BY66); experiment: KDM AlphaScreen selectivity panel, KDM5D; conditions: for IC50: AlphaScreen after 120 min pre-incubation, read-out: KDM IC50 5D; for SI over KDM5B, 5D: KDM5D IC50/KDM5B IC50
Protocol: (§1) A panel of JmjC KDMs was tested by AlphaScreen to determine the selectivity of the compounds (Table S2). […]
(§2) KDM alpha screen selectivity
(§3) Inhibition of histone demethylases was assessed using the histone demethylase AlphaScreen assay (Amplified Luminescence Proximity Homogenous Assay) as previously reported.[4] The basis of this assay for lysine demethylases have been widely described.[5] In brief, the assay was performed in 384-well plate format using white proxiplates (PerkinElmer), and transfer of titrations of compounds (100 nl) was performed using an ECHO 550 acoustic dispenser […]
(§4) Tween- 20) containing the appropriate demethylase enzyme (see Supplementary table 1 for final concentrations) was transferred to each well of a 384-well proxiplate with a Multidrop™ Combi Reagent Dispenser, and the enzymes allowed to pre-incubate for 120 minutes with compound (final concentration of DMSO was 1%). After that time, the enzyme reaction was initiated by addition of 5 µl of a substrate mix consisting of Ketoglutarate (2-OG), Ferrous Ammonium Sulphate (FAS), L-Ascorbic Acid (LAA) and biotinylated peptide substrate (see Supporting table X for final assay concentrations) and the reaction incubated for the indicated time at room temperature. Reaction was stopped by the addition of 5 μl of assay buffer containing EDTA (7.5 mM) and NaCl (400 mM). Streptavidin Donor beads (0.08 mg/ml) and Protein-A conjugated acceptor beads (0.08 mg/ml) (AlphaScreen General IgG detection kit was from Perkin Elmer) were pre-incubated for 1 hour with an antibody to the product methyl mark (Supplementary Table 1) and the presence of biotin-H3-product was detected by addition of 5 µl of the pre-incubated AlphaScreen beads (final concentrations of 0.02 mg/ml with respect to acceptor and donor beads). Detection was allowed to proceed for 2 hour at room temperature and the assay plates read in a BMG Labtech Pherastar FS plate reader (excitation, 680 nm; emission, 570 […]
(§5) IC50(t) = Ki (1 + K ) . ( η . k .t − 1) (1) […]
(§6) Table S4. AlphaScreen assay conditions for the KDM selectivity panel

KDM5C = KDM5C (Homo sapiens, UniProt P41229); experiment: KDM AlphaScreen selectivity panel, KDM5C; conditions: for IC50: AlphaScreen after 120 min pre-incubation, read-out: KDM IC50 5C; for SI over KDM5B, 5C: KDM5C IC50/KDM5B IC50
Protocol: as §1, §2, §3, §4, §5, §6

KDM4B = target: T1, KDM4B (Homo sapiens, UniProt O94953); experiment: KDM AlphaScreen selectivity panel, KDM4B; conditions: for IC50: AlphaScreen after 120 min pre-incubation, read-out: KDM IC50 4B; for SI over KDM5B, 4B: KDM4B IC50/KDM5B IC50
T1 sequence (O94953 1-1096): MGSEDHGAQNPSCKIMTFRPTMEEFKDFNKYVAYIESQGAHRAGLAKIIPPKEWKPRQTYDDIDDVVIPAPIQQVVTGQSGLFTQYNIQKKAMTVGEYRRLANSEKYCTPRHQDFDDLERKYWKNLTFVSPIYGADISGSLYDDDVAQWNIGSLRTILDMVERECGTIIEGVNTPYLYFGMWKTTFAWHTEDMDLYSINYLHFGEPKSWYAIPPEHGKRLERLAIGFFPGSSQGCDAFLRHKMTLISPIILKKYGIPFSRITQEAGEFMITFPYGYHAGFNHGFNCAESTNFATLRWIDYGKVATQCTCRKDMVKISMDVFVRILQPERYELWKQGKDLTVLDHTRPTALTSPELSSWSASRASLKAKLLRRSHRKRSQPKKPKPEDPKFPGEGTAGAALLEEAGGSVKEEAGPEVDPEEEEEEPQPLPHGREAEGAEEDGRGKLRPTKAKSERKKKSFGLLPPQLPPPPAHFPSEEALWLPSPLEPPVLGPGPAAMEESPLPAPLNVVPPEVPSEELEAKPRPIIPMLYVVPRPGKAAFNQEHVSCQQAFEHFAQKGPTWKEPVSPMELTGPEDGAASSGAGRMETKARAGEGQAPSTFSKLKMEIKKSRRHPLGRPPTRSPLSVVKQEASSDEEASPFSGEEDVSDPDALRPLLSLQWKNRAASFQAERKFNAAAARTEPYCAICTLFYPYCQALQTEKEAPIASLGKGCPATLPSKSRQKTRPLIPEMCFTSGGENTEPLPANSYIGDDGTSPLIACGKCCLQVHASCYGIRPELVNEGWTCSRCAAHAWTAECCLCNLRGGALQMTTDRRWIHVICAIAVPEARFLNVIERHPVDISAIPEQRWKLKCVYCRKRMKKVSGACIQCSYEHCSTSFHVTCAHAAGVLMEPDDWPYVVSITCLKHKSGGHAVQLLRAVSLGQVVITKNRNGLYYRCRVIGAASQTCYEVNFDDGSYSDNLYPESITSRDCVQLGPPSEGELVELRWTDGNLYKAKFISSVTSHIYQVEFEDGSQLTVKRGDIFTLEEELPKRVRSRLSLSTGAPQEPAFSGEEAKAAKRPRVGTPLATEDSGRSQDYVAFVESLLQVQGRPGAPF
Protocol: as §1, §2, §3, §4, §5, §6

KDM6B = KDM6B (Homo sapiens, UniProt O15054); experiment: KDM AlphaScreen selectivity panel, KDM6B; conditions: for IC50: AlphaScreen after 120 min pre-incubation, read-out: KDM IC50 6B; for SI over KDM5B, 6B: KDM6B IC50/KDM5B IC50
Protocol: as §1, §2, §3, §4

KDM5C, sequence (P41229 whole entry): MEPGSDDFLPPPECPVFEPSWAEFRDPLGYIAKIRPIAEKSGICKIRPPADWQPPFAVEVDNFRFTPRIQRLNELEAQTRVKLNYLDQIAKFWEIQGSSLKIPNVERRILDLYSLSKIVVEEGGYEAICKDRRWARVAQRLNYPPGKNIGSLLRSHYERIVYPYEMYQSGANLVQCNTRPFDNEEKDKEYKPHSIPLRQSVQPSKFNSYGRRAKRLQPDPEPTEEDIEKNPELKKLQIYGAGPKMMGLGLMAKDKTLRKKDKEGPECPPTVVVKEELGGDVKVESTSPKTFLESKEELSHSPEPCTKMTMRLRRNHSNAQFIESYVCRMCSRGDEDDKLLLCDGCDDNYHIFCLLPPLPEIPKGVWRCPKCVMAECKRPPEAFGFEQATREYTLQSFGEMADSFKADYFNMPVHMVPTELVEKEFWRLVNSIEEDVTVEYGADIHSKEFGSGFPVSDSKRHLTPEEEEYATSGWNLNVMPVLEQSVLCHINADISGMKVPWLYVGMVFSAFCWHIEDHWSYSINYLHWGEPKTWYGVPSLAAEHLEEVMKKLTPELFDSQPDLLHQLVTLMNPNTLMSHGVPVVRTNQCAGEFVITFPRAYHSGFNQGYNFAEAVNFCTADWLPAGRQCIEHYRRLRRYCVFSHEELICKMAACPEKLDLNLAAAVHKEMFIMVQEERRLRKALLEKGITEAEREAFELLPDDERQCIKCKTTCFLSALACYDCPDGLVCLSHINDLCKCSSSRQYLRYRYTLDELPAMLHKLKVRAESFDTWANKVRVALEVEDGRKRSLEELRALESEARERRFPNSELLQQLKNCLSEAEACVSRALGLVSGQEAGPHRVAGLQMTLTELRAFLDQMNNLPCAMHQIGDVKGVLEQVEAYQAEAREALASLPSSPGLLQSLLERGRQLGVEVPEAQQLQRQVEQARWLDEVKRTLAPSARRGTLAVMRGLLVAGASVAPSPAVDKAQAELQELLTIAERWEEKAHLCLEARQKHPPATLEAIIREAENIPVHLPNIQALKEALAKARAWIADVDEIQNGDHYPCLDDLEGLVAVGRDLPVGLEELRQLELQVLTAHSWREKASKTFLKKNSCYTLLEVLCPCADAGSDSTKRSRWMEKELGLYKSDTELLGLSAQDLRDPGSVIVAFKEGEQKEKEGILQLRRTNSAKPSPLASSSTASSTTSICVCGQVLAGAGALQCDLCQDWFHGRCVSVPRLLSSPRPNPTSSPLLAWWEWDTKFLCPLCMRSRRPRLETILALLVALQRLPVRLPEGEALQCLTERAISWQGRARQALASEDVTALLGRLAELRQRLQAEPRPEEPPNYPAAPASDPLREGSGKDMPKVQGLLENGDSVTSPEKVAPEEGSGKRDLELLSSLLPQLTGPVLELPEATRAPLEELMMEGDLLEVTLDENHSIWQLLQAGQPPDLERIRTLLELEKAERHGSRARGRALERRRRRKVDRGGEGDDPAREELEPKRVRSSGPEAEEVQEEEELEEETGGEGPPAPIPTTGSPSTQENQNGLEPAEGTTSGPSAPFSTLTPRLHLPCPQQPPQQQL
KDM5D, sequence (Q9BY66 whole entry): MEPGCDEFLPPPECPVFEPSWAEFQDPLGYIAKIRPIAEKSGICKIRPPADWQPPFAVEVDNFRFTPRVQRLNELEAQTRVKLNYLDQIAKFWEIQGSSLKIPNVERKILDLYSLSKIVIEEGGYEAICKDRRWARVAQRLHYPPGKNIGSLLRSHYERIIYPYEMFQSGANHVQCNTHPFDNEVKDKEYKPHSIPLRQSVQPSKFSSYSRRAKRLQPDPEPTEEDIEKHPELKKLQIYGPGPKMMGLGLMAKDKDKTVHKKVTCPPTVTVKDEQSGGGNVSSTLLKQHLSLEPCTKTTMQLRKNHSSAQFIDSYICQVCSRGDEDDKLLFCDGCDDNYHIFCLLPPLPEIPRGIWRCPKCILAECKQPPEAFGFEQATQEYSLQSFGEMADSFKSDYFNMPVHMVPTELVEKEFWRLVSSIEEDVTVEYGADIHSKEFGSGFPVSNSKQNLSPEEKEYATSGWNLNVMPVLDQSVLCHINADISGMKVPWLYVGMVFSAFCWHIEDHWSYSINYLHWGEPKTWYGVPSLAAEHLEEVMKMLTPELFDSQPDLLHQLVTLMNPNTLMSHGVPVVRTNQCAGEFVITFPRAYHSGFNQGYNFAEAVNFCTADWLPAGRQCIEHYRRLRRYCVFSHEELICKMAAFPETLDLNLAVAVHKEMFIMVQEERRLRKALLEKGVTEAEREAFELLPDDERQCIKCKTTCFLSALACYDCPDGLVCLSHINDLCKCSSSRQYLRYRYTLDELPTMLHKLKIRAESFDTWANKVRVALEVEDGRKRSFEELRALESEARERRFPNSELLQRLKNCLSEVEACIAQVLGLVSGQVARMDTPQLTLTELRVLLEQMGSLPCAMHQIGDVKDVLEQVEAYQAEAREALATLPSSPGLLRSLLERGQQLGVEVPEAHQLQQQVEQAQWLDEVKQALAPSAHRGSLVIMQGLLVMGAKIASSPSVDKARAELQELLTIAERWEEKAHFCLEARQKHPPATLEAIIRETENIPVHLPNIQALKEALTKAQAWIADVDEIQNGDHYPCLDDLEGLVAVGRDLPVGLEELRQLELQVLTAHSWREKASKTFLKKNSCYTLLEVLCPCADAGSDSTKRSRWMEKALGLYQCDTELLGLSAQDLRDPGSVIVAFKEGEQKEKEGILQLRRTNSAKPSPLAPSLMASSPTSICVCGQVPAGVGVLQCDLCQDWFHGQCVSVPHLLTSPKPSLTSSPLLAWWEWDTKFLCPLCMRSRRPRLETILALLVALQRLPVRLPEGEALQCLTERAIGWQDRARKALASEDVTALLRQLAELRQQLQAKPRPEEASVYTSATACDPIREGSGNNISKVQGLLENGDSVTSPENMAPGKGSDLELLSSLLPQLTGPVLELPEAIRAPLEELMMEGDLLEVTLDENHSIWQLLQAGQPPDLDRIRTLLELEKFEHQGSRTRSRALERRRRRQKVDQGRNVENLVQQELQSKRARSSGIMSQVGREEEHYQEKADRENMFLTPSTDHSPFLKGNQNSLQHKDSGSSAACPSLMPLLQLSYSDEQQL
KDM6B, sequence (O15054 whole entry): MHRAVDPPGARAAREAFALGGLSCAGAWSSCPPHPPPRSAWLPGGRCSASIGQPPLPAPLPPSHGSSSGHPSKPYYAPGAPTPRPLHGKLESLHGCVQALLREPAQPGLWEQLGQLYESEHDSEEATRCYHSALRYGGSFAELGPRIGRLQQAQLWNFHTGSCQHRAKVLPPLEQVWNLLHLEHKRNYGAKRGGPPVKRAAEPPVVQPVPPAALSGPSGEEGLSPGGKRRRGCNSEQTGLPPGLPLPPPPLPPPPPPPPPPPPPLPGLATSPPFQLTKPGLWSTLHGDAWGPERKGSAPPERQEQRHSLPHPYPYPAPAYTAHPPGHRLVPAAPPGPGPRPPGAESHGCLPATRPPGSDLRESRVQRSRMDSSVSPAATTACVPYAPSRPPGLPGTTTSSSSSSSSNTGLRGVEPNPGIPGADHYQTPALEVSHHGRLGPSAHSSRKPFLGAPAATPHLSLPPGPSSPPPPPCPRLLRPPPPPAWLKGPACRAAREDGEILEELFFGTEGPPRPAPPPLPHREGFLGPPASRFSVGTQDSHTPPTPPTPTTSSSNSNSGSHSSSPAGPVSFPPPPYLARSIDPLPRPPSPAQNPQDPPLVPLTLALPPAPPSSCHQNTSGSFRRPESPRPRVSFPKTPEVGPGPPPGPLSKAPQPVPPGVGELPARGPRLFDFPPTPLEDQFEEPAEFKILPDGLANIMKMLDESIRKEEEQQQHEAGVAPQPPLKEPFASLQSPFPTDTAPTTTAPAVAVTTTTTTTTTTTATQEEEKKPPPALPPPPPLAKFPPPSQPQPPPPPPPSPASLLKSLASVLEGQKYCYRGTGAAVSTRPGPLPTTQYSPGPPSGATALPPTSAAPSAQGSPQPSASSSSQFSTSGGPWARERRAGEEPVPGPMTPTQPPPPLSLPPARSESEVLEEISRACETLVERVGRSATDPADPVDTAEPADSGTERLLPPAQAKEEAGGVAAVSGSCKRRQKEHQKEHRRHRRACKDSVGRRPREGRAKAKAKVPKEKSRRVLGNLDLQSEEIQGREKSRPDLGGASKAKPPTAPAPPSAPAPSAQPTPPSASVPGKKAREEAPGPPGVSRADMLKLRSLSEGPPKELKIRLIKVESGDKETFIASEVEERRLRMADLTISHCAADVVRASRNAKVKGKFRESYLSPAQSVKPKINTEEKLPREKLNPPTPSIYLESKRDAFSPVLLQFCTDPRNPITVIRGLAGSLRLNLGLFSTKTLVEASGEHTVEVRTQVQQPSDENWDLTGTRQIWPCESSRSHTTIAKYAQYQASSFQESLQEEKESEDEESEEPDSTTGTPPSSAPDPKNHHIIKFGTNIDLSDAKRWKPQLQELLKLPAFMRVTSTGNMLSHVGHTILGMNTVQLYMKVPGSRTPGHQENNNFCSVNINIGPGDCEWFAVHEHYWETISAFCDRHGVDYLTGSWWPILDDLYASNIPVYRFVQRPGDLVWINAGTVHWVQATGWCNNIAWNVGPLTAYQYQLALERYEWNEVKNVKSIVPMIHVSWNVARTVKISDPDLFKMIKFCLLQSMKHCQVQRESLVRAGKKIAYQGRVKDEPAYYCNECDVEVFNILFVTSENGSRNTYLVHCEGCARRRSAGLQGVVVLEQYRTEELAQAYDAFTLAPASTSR

SMILES	IC50 (KDM5D) [nM]	SI over KDM5B, 5D (KDM5D)	IC50 (KDM5C) [nM]	SI over KDM5B, 5C (KDM5C)	selectivity over KDM4B (KDM4B)	IC50 (KDM4B) [nM]	SI over KDM5B, 4B (KDM4B)	IC50 (KDM6B) [nM]	selectivity for KDM5B over KDM5C (KDM5C)	SI over KDM5B, 6B (KDM6B)
C=CC(=O)Nc1cccc(CN(C)CCc2cnn(-c3nccc4c(=O)[nH]cnc34)c2)c1 [Compound 4]	83 ± 7	4	778 ± 37			1100 ± 100		> 33000		> 1650
CN(CCc1cnn(-c2nccc3c(=O)[nH]cnc23)c1)Cc1cccc(NC(=O)CCl)c1 [Compound 5]	48 ± 3	5	394 ± 11	40	more than 60 fold	700 ± 200	68	670 ± 10		67
CN(C)C/C=C/C(=O)Nc1cccc(CN(C)CCc2cnn(-c3nccc4c(=O)[nH]cnc34)c2)c1 [Compound 6]	702 ± 47		4570 ± 341			1900 ± 100		> 100000		

Continued, values first:

IC50 (KDM5D) [nM]	SI over KDM5B, 5D (KDM5D)	IC50 (KDM5C) [nM]	SI over KDM5B, 5C (KDM5C)	selectivity over KDM4B (KDM4B)	IC50 (KDM4B) [nM]	SI over KDM5B, 4B (KDM4B)	IC50 (KDM6B) [nM]	selectivity for KDM5B over KDM5C (KDM5C)	SI over KDM5B, 6B (KDM6B)	SMILES
78 ± 7	5	1270 ± 276	74	> 500 fold	14200 ± 1100	831	> 100000			C=CC(=O)N1CCC(n2cc(-c3[nH]c4c(C#N)cnn4c(=O)c3C(C)C)cn2)CC1 [Compound 10]
59 ± 2	7	1040 ± 42	115		4600 ± 100	513	> 100000	more than 100 fold		CC(C)c1c(-c2cnn(C3CCN(C(=O)CCl)CC3)c2)[nH]c2c(C#N)cnn2c1=O [Compound 11]
252 ± 10	4	2192 ± 19	34		6300 ± 600	97	> 100000		> 1539	C=CC(=O)NCCOc1ccc(-c2[nH]c3c(C#N)cnn3c(=O)c2C(C)C)cc1 [Compound 9]
38 ± 1	5	571 ± 34	81	> 500 fold	4100 ± 200	572	> 100000		> 14285	CC(C)c1c(-c2cnn(CCNC(=O)CCl)c2)[nH]c2c(C#N)cnn2c1=O [Compound 7]

Reference: paper PMC6391970, “Design, Synthesis and Characterization of Covalent KDM5 Inhibitors” (Angewandte Chemie (International Ed. in English), 2018)
